Measurements: patent US7709511B2, “Benzothiazolone derivatives” (AstraZeneca AB, priority 2005, dated 2010)
Where a name gives a salt, the structure may show the parent alone.

How the values were obtained:
[1] = molecular target: T1, recombinant human adrenergic beta 1 receptors (Homo sapiens, UniProt P08588); test: Adrenergic β1 selectivity assay, inhibition of [125I]-Iodocyanopindolol binding to membranes; details: [125I]-Iodocyanopindolol 0.036 nM; read-out: β1 bind p IC50 (converted)
T1 construct: purchased Euroscreen
T1 sequence (P08588 whole entry): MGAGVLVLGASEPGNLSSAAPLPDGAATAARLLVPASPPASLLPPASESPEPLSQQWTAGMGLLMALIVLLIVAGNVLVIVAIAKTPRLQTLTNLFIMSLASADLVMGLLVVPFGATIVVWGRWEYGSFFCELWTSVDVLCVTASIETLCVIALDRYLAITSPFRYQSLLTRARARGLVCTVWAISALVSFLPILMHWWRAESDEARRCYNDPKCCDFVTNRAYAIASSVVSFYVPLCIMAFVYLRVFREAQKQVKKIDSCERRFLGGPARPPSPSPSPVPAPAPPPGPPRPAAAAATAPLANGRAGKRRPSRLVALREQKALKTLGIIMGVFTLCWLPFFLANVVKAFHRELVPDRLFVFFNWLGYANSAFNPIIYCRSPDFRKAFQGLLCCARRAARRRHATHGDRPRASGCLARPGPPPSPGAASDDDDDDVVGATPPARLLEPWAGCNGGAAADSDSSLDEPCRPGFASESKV
Protocol: (§1) Membranes containing recombinant human adrenergic beta 1 receptors were obtained from Euroscreen. These were diluted in Assay Buffer (50 mM HEPES, 1 mM EDTA, 120 mM NaCl, 0.1% gelatin, pH 7.4) to provide a final concentration of membranes that gave a clear window between maximum and minimum specific binding.
Assays were performed in U-bottomed 96-well polypropylene plates. 10 μL [^125I]-Iodocyanopindolol (0.036 nM final concentration) and 10 μL of test compound (10× final concentration) were added to each test well. For each assay plate 8 replicates were obtained for [^125I]-Iodocyanopindolol binding in the presence of 10 μL vehicle (10% (v/v) DMSO in Assay Buffer; defining maximum binding) or 10 μL Propranolol (10 μM final concentration; defining non-specific binding (NSB)). Membranes were then added to achieve a final volume of 100 μL. […] Five washes with 250 μL wash buffer (50 mM HEPES, 1 mM EDTA, 120 mM NaCl, pH 7.4) were performed at 4° C. to remove unbound radioactivity. […] The plates were sealed (TopSeal A) and filter-bound radioactivity was measured with a scintillation counter (TopCount, Packard BioScience) using a 3-minute counting protocol.
Total specific binding (B0) was determined by subtracting the mean NSB from the mean maximum binding. […]

[2] = molecular target: T2, recombinant human Dopamine Subtype D2s receptors (Homo sapiens, UniProt P14416); test: Dopamine D2 selectivity assay, inhibition of [3H]-spiperone binding to membranes; details: [3H]-spiperone 0.16 nM; read-out: D2 bind pIC50 (converted)
T2 construct: purchased Perkin Elmer
T2 sequence (P14416 1-414 isoform P14416-2): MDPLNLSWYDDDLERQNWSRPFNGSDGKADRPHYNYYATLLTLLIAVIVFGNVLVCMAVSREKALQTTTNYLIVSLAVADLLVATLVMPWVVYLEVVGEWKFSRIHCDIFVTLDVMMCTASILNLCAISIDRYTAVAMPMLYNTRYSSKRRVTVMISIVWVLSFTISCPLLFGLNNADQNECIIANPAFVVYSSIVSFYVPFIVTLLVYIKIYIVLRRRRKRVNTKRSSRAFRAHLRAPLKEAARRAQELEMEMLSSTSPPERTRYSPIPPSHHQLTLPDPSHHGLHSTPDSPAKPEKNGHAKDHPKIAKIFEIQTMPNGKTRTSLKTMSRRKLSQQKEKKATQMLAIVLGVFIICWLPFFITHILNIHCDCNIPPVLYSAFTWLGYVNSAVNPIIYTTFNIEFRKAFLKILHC
Protocol: as §1, with “Dopamine Subtype D2s” for “adrenergic beta 1”, “Perkin Elmer.” for “Euroscreen.”
Assays were performed in U-bottomed 96-well polypropylene plates. 30 μL [^3H]-spiperone (0.16 nM final concentration) and 30 μL of test compound (10× final concentration) were added to each test well. For each assay plate 8 replicates were obtained for [^3H]-spiperone binding in the presence of 30 μL vehicle (10% (v/v) DMSO in Assay Buffer; defining maximum binding) or 30 μL Haloperidol (10 μM final concentration; defining non-specific binding (NSB)). Membranes were then added to achieve a final volume of 300 μL. The plates were incubated for 2 hours at room temperature and then filtered onto PEI coated GF/B filter plates, pre-soaked for 1 hour in Assay Buffer, using a 96-well plate Tomtec cell harvester. Five washes with 250 μL wash buffer (50 mM HEPES, 1 mM EDTA, 120 mM NaCl, pH 7.4) were performed at 4° C. to remove unbound radioactivity. The plates were dried then sealed from underneath using Packard plate sealers and MicroScint-O (50 μL) was added to each well. The plates were sealed (TopSeal A) and filter-bound radioactivity was measured with a scintillation counter (TopCount, Packard BioScience) using a 3-minute counting protocol.
Total specific binding (B0) was determined by subtracting the mean NSB from the mean maximum binding. NSB values were also subtracted from values from all other wells. […] Data was fitted to a four parameter logistic equation to determine the compound potency, which was expressed as pIC50 (negative log molar concentration inducing 50% inhibition of [^3H]-spiperone binding).

| SMILES | IC50 [1] [nM] | IC50 [2] [nM] |
| --- | --- | --- |
| CCN(CC)CCN(CCNCCc1ccc(O)c2[nH]c(=O)sc12)C(=O)CCOCCc1cccc(C)c1 [Example 28, N-[2-(Diethylamino)ethyl]-N-(2-{[2-(4-hydroxy-2-oxo-2,3-dihydro-1,3-benzothiazol-7-yl)ethyl]amino}ethyl)-3-[2-(3-methylphenyl)ethoxy]propanamide] | 1000 | 1000 |
| CCN(CC)CCN(CCNCCc1ccc(O)c2[nH]c(=O)sc12)C(=O)CCOCCc1ccc(Cl)cc1 [Example 26, 3-[2-(4-Chlorophenyl)ethoxy]-N-(2-diethylaminoethyl)-N-{2-[2-(4-hydroxy-2-oxo-2,3-dihydro-1,3-benzothiazol-7-yl)ethylamino]ethyl}propanamide dihydrobromide] | 1000 | 1260 |
